# Like-named read-outs stand apart in the source and are kept apart here.
# Tests used:
# [1] = in vivo; settings: mouse, in vivo, po
# Protocol: Male and female white mice (CFLP strain, 18-22 g) are used, 10 animals per dose. The test compounds are administered orally in a volume of 20 ml/kg. After administration the mice are observed for a period of 7 days. The animals are kept in plastic boxes, on wood litter, at room temperature. The animals receive standard mouse fodder and tap water ad libitum.
# [2] = test system: motility; assay: animal or person; format: in vivo; settings: for ED50: Mus musculus, po; for Therapeutical index: Table II, motility inhibition, LD50/ED50
# Protocol: The test is accomplished according to the method of Borsy et al. in a 10-channel Dews system equipment, whereby 3 mice are used per channel. The test compound or the carrier, respectively, is administered orally, and one hour after the said treatment the animals are placed into the apparatus and the number of the interruptions of infrared radiation is registered for 30 minutes.
# The results are summarized in Table II and documented by means of suitable statistics for each experiment.
# [J. Borsy, E. Csanyi, I. Lazar: Arch. Int. Pharmacodyn. 124, 1 (1960)].
# [3] = test system: yohimbin toxicity; assay: animal or person; settings: for ED50: Mus musculus; for Therapeutical index: Table IV, yohimbin toxicity, LD50/ED50
# Protocol: The test is carried out according to the method of Quinton. Groups consisting of 10 mice are used for each dose. The animal groups are treated with the suitable doses of the test compounds while the control group is treated with a carrier. An hour after the treatment a sublethal dose of yohimbin is administered intraperitoneally in a volume of 20 ml/kg. The perished animals are counted after 1 and 24 hours.
# [4] = test system: acetic acid writhing; assay: Acetic acid "writhing test" on mice (Newbould); format: in vivo, white mice; settings: for ED50: Mus musculus; for Therapeutical index: acetic acid writhing, LD50/ED50
# Protocol: In the period between the 5th and 10th minutes following the administration of acetic acid the number of the characteristic "writhing" responses is counted for each animal and the "total writhing number" (within 5 minutes) is expressed as the percentage of the value obtained for the control animals. The mice are treated with the test compound and the carrier, respectively, orally 1 hour before the administration of acetic acid. 12 animals are used per dose.
# [Newbould, B. D.: Brit.
# [5] = test system: nicotine spasm and lethality; assay: Inhibition of nicotine spasm and lethality on mice (Stone); format: in vivo; settings: Table VIII; for ED50: Mus musculus, oral, 1 h before nicotine 1.4 mg/kg i.v.; for Therapeutical index: nicotine spasm and lethality, LD50/ED50
# Description: [Stone, C. C., Mecklenburg, K. L., Torchiana, M. L.: Arch. Int.
# [6] = test system: pentetrazole spasm; assay: Inhibition of pentetrazol spasm on mice; settings: for ED50: Mus musculus, po; for Therapeutical index: Table V, pentetrazole spasm, LD50/ED50
# Protocol: The modified method of Benziger and Hane is used on white mice. Groups consisting of 6 animals are used for each dose. […] The test compounds are administered orally one hour before the treatment with pentetrazole; in the control group the animals obtain the carrier orally at the same points of time.
# The therapeutical index data disclosed in the above Tables are calculated by means of the following equation: [formula]
# [7] = test system: hexobarbital narcosis; assay: Hexobarbital narcosis potentiating effect; settings: for ED50: Mus musculus, po; for Therapeutical index LD50 /ED50: Table I, hexobarbital narcosis
# Protocol: The test is carried out on white mice. Groups consisting of six mice are used for each dose and test compound. The test compound is administered orally and an hour after this treatment narcosis is induced by means of a 40 mg/kg i.v. dose of hexobarbital. The control group receives carrier instead of the test compound.
# Those mice are considered to be having a positive reaction which show a narcosis time at least 2.5 times longer than that of the control group. The ED50 values thus transformed are calculated.
# [8] = test system: ulcus secretion; assay: animal or person; format: in vivo; settings: Rattus norvegicus, po, 5 h
# Protocol: The test is carried out according to the method of Nakamura on rats (Wistar strain) weighing 150-230 g and fasted for 48 hours. Each animal group consists of 4 male and 4 female rats. On the day of the experiment the pylorus of the animals is bound and the corresponding dose of the test compound is administered orally immidiately after operation. The animals are killed with ether 5 hours after the operation, their stomach is removed, cut along the large curve and placed on plastic plates.
# [9] = test system: maximal electroshock; assay: Inhibition of maximal electroshock on mice
# Protocol: The test is carried out on white mice weighing 20-25 g. The animals receive an electric shock through corneal electrodes (50 Hz; 45 mA, 0.4 sec.). A total inhibition of the tonus extensor spasms of the posterior extremities is regarded as the criterium of anticonvulsive effect. The test compound and the carrier, respectively, are administered orally an hour before the electric shock.
# [10] = Table VII, oral, 1 h before acetic acid i.p., read-out: ED50
compound,measurement,setting,value
"CN(C)CCCO/N=C1C=C(/C=C/c2cccc(Cl)c2)CC(C)(C)C/1 [Example 8, 5,5-Dimethyl-3-(E)-[(3'-chloro-phenyl)-vinyl]-1-(E)-(3""-dimethylamino-propoxyimino)-2-cyclohexene]",LD50 at 168 h,[1],2000 mg/kg
same,ED50,[2],170 mg/kg
same,Therapeutical index,[2],11.8
same,ED50,[3],35 mg/kg
same,Therapeutical index,[3],57.1
same,ED50,[4]; [10],178 mg/kg
same,Therapeutical index,[4]; Table VII,11.2
same,ED50,[5],35 mg/kg
same,ED50,[6],58 mg/kg
same,Therapeutical index,[6],34.5
same,ED50,[7],180 mg/kg
same,Therapeutical index LD50 /ED50,[7],11.1
"COc1ccc(/C=C/C2=CC(=N/OCCCN(C)C)/CC(C)(C)C2)cc1 [Example 11, 5,5-Dimethyl-3-(E)-[(4'-methoxy-phenyl)-vinyl]-1-(E)-(3""-dimethylamino-propoxyimino)-2-cyclohexene]",LD50 at 168 h,[1],2000 mg/kg
same,ED50,[3],40 mg/kg
same,Therapeutical index,[3],50
same,ED50,[6],78 mg/kg
same,Therapeutical index,[6],25.6
same,ED50,[7],140 mg/kg
same,Therapeutical index LD50 /ED50,[7],14.3
"CC(C)N(CCO/N=C1C=C(/C=C/c2ccc(Cl)cc2)CC(C)(C)C/1)C(C)C [Example 14, 5,5-Dimethyl-3-(E)-[(4'-chloro-phenyl)-vinyl]-1-(E)-2'""-[bis-(2""-methyl-ethyl)-amino-ethoxyimino]-2-cyclohexene]",LD50 at 168 h,[1],2000 mg/kg
same,ED50,[6],70 mg/kg
same,Therapeutical index,[6],28.5
"CC1(C)CC(/C=C/c2ccccc2)=CC(=N/OCCN2CCOCC2)/C1 [Example 17, 5,5-Dimethyl-3-(E)-phenyl-vinyl-1-(E)-(N-morpholino-ethoxyimino)-2-cyclohexene]",LD50 at 168 h,[1],1600 mg/kg
same,ED50,[5],40 mg/kg
same,Therapeutical index,[5],40.0
same,ED50,[6],148 mg/kg
same,Therapeutical index,[6],10.8
same,ED50,[7],13 mg/kg
same,Therapeutical index LD50 /ED50,[7],123.0
"CN1CCN(CCCO/N=C2C=C(/C=C/c3ccc(Cl)cc3)CC(C)(C)C/2)CC1 [Example 4, 5,5-Dimethyl-3-(E)-[(4'-chloro-phenyl)-vinyl]-1-(E)-(4""-methyl-1""-piperazinyl-propoxyimino)-2-cyclohexene]",LD50 at 168 h,[1],2000 mg/kg
same,ED50,[6],180 mg/kg
same,Therapeutical index,[6],11.1
"CN(C)CCCO/N=C1C=C(/C=C/c2ccc(Cl)cc2)CC(C)(C)C/1 [Example 5, 5,5-Dimethyl-3-(E)-[(4'-chloro-phenyl)-vinyl]-1-(E)-(3""-dimethylamino-propoxyimino)-2-cyclohexene]",LD50 at 168 h,[1],2000 mg/kg
same,ED50,[2],120 mg/kg
same,Therapeutical index,[2],17.0
same,ED50,[4]; [10],155 mg/kg
same,Therapeutical index,[4]; Table VII,12.9
same,ED50,[6],125 mg/kg
same,Therapeutical index,[6],16.0
"CCN(CC)CCO/N=C1C=C(/C=C/c2ccc(OC)cc2)CC(C)(C)C/1 [Example 23, 5,5-Dimethyl-3-(E)-[(4'-methoxy-phenyl)-vinyl]-1-(E)-(2""-diethylamino-ethoxyimino)-2-cyclohexene]",LD50 at 168 h,[1],1000 mg/kg
same,ED50,[6],58 mg/kg
same,Therapeutical index,[6],17.2
"CC(=O)Nc1ccc(O)cc1 [Paracetamol, reference compound]",ED50,[4]; [10],180 mg/kg
"CN1CCN(CCCO/N=C2C=C(/C=C/c3ccccc3)CC(C)(C)C/2)CC1 [Example 2, 5,5-Dimethyl-3-(E)-phenyl-vinyl-1-(E)-(4'-methyl-1'-piperazinyl-propoxyimino)-2-cyclohexene]",LD50 at 168 h,[1],2000 mg/kg
same,ED50,[2],190 mg/kg
same,Therapeutical index,[2],10.5
same,ED50,[5],78 mg/kg
same,Therapeutical index,[5],25.6
same,ED50,[6],140 mg/kg
same,Therapeutical index,[6],14.3
"CNC1=Nc2ccc(Cl)cc2C(c2ccccc2)=[N+]([O-])C1 [Chlordiazepoxid, reference compound]",LD50 at 168 h,[1],620 mg/kg
same,ED50,[7],10 mg/kg
same,Therapeutical index LD50 /ED50,[7],62.0
"CCOc1ccccc1OCC1CNCCO1 (centres unmarked) [Viloxazin, reference compound]",ED50,[3],20 mg/kg
"OC(CCN1CCCCC1)(c1ccccc1)C1CCCCC1 (centres unmarked) [Trihexyphenidyl, reference compound]",ED50,[5],20 mg/kg
"COc1cc(C(=S)N2CCOCC2)cc(OC)c1OC [Trithiozine, reference compound]",ED50,[8],~240 mg/kg
"CN1C(=O)OC(C)(C)C1=O [Trimethadion, reference compound]",ED50,[6],490 mg/kg
same,ED50,"[9]; Mus musculus, po",400 mg/kg
same,Therapeutical index,"[9]; Table VI, maximal electroshock, LD50/ED50",5.1
"CC1(C)CC(/C=C/c2ccc(Cl)cc2)=CC(=N/OCCCN2CCOCC2)/C1 [Example 24, 5,5-Dimethyl-3-(E)-[(4'-chloro-phenyl)-vinyl]-1-(E)-(N-morpholino-propoxyimino)-2-cyclohexane]",LD50 at 168 h,[1],> 1000 mg/kg
same,ED50,[6],110 mg/kg
same,Therapeutical index,[6],> 9.1
"CC1(C)CC(/C=C/c2ccccc2)=CC(=N/OCCN2CCCCC2)/C1 [Example 16, 5,5-Dimethyl-3-(E)-phenyl-vinyl-1-(E)-(2'-N-piperidyl-ethyl)-oxyimino-2-cyclohexene]",LD50 at 168 h,[1],1850 mg/kg
same,ED50,[2],150 mg/kg
same,Therapeutical index,[2],12.3
same,ED50,[5],70 mg/kg
same,Therapeutical index,[5],26.4
same,ED50,[6],185 mg/kg
same,Therapeutical index,[6],10.0
same,ED50,[7],40 mg/kg
same,Therapeutical index LD50 /ED50,[7],46.0
"CCCC(C)(COC(N)=O)COC(N)=O [Meprobamate, reference compound]",ED50,[2],270 mg/kg
same,ED50,[7],260 mg/kg
same,Therapeutical index LD50 /ED50,[7],4.2
"COc1ccc(/C=C/C2=CC(=N/OCC(C)CN(C)C)/CC(C)(C)C2)cc1 (racemic) [Example 25, D,L-5,5-Dimethyl-3-(E)-[(4'-methoxy-phenyl)-vinyl]-1-(E)-(2""-methyl-3""-dimethylamino-propoxyimino)-2-cyclohexane]",LD50 at 168 h,[1],1300 mg/kg
same,ED50,[2],~200 mg/kg
same,Therapeutical index,[2],6.5
same,ED50,[4]; po,~200 mg/kg
same,Therapeutical index,[4]; Table VII,65
same,ED50,[6],15.5 mg/kg
same,Therapeutical index,[6],83.9
"COc1ccc(/C=C/C2=CC(=N/OCCCN(C)C)/CC(C)(C)C2)cc1OC [Example 10, 5,5-Dimethyl-3-(E)-[(3',4'-dimethoxy-phenyl)-vinyl]-1-(E)-(3""-dimethylamino-propoxyimino)-2-cyclohexene]",LD50 at 168 h,[1],1000 mg/kg
same,ED50,[2],60 mg/kg
same,Therapeutical index,[2],16.7
same,ED50,[3],40 mg/kg
same,Therapeutical index,[3],25
same,ED50,[4]; [10],153 mg/kg
same,Therapeutical index,[4]; Table VII,6.5
"CN(C)CCO/N=C1C=C(/C=C/c2ccc(Cl)cc2)CC(C)(C)C/1 [Example 15, 5,5-Dimethyl-3-(E)-[(4'-chloro-phenyl)-vinyl]-1-(E)-(2""-dimethylamino-ethoxyimino)-cyclohexene]",LD50 at 168 h,[1],2000 mg/kg
same,ED50,[5],70 mg/kg
same,Therapeutical index,[5],28.6
same,ED50,[6],120 mg/kg
same,Therapeutical index,[6],16.6
same,ED50,[7],25 mg/kg
same,Therapeutical index LD50 /ED50,[7],80.0
CC(C)N(CCO/N=C1C=C(/C=C/c2ccccc2)CC(C)(C)C/1)C(C)C [Example 12],LD50 at 168 h,[1],1000 mg/kg
same,ED50,[4]; [10],50 mg/kg
same,Therapeutical index,[4]; Table VII,20.0
same,ED50,[6],23 mg/kg
same,Therapeutical index,[6],43.5
same,ED50,[7],100 mg/kg
"CN(C)CCCO/N=C1C=C(/C=C/c2c(Cl)cccc2Cl)CC(C)(C)C/1 [Example 7, 5,5-Dimethyl-3-[(2',6'-dichloro-phenyl)-vinyl]-1-(E)-(3""-dimethylamino-propoxyimino)-2-cyclohexene]",LD50 at 168 h,[1],2000 mg/kg
same,ED50,[3],60 mg/kg
same,Therapeutical index,[3],33.3
same,Therapeutical index,[5],25
same,ED50,[6],80 mg/kg
same,Therapeutical index,[6],25.0
"CN(C)CCCO/N=C1C=C(/C=C/c2ccccc2Cl)CC(C)(C)C/1 [Example 9, 5,5-Dimethyl-3-(E)-[(2'-chloro-phenyl)-vinyl]-1-(E)-(3""-dimethylamino-propoxyimino)-2-cyclohexene]",LD50 at 168 h,[1],2000 mg/kg
same,ED50,[3],50 mg/kg
same,Therapeutical index,[3],40
same,ED50,[6],160 mg/kg
same,Therapeutical index,[6],12.5
"CN(C)CCCN1c2ccccc2CCc2ccccc21 [Imipramin, reference compound]",ED50,[3],21 mg/kg

# Source: patent US4939142A, “Substituted styrene derivatives” (priority 1989, dated 1990)
